These are literature values, as cited in patent publication US20050009897A1, “Method of treatment” (priority 2001, published 2005).

The conditions of data set [1]: 45 hypertensive diabetic patients, cited from earlier work.
For data set [2] the following is noted: nondiabetic hypertensive individuals; cited from earlier work.
The conditions of data set [3]: compared with other β-blockers, angiotensin converting enzyme inhibitors or calcium channel blockers; cited from earlier work.
The conditions of data set [4]: hypertensive patients; cited from earlier work.

Read-outs that look alike come from different tables or passages of the source.

On to `COc1ccccc1OCCNCC(O)COc1cccc2[nH]c3ccccc3c12` (stereo not shown) [carvedilol], for which, in data set [1], the HbA1c entry is “decreased”, the fasting glucose entry is “decreased”, the fasting insulin result is “decreased” and the glucose disposal entry is reported as “increased”. In addition, in data set [1], the insulin sensitivity entry was “increased” and the lipid peroxidation result is “decreased”. Further, in data set [2], the insulin sensitivity result is “increases”. Further, the lowering blood pressure entry in data set [3] is recorded as “as effective as other β-blockers, angiotensin converting enzyme inhibitors or calcium channel blockers”.

Regarding `CC(C)NCC(O)COc1cccc2ccccc12` (stereo not shown) [propranolol], the glycemic control result in data set [4] is listed as “significantly reduce”.

With `CC(C)NCC(O)COc1ccc(CC(N)=O)cc1` (stereo not shown) [atenolol], in data set [1], the fasting glucose result is given as “increased”, the fasting insulin entry is listed as “increased”, the glucose disposal result is recorded as “decreased” and the insulin sensitivity result was “decreased”. The lipid peroxidation entry in data set [1] is given as “no effect”. For the same compound, the antihypertensive effect entry in data set [1] (relative to carvedilol) was “equivalent”. Besides, the glycemic control result in data set [4] was “significantly reduce”.
